# Patent publication US4115541A (priority 1975, dated 1978)
# Assays:
# [1] = physical; cited from earlier work
# [2] = Distribution of 99mTc-Sn-AEDP and 85Sr in rabbits, carrier effect of AEDP (Example 4); assay type: in vivo, rabbit; details: 2 Hrs.
# Description: Adult New Zealand albino rabbits having an average weight of 3.8 kg were utilized. Strontium-85 was employed as a standard for comparison. […] Each dosage is contained in a volume of 1 ml.
# The animals were sacrificed serially from 1 to 24 hours after injection and the activities in major organs were determined by counting multiple samples from each organ in a scintillation well counter (the technetium-99m counts were corrected for the Compton contributions from the strontium-85 activity in the technetium-99m energy window). Multiple samples were counted from the tibia, femur, spine and pelvic bones; the total activity in the skeleton was estimated by assuming the whole skeleton consisted of equal proportions by weight of tibia, spine, femur and pelvis and that the skeletal mass was 10% of the body weight. The red marrow was sampled from the femur and the total marrow was assumed to be 2.2% of the total body weight. Similarly, blood volume was assumed to be 7% and the skeletal muscle 43% of the body weight. The whole liver and both kidneys were weighed and multiple samples from each were counted to measure the total activity in each organ.
# In another series of experiments carried out as described in Example 2, the distribution of technetium 99m from its 99m-technetium-tin-methylene diphosphonate complex was determined in albino rabbits, again in comparison with strontium-85.
# The distribution of technetium 99m from its 99m technetium-tin-1-amino-ethane-1,1-diphosphonate complex was determined as in Example 3 and compared with the distribution of strontium-85.
molecule,measurement,setting,value
[99Tc] [technitium-99m],half-life (radionuclide),[1],6 h
[18FH] [fluorine-18],half-life (radionuclide),[1],1.83 h
"99m technetium-tin-1-amino-ethane-1,1-diphosphonate complex [^99m Tc-Sn-AEDP]","Blood, % Dose in Whole Organ",[2]; AEDP 0.01 mg/kg,1.18 % Dose
same,"Blood, % dose/1% body weight",[2]; AEDP 0.01 mg/kg,0.168 % Dose/1% Body weight
same,"Bone Ave, % Dose/1% Body weight",[2]; AEDP 0.01 mg/kg,7.60 % Dose/1% Body weight
same,"Femur, % dose/1% body weight",[2]; AEDP 0.01 mg/kg,7.54 % Dose/1% Body weight
same,"Kidneys, % Dose in Whole Organ",[2]; AEDP 0.01 mg/kg,1.59 % Dose
same,"Kidneys, % dose/1% body weight",[2]; AEDP 0.01 mg/kg,2.72 % Dose/1% Body weight
same,"Liver, % Dose in Whole Organ",[2]; AEDP 0.01 mg/kg,1.69 % Dose
same,"Liver, % dose/1% body weight",[2]; AEDP 0.01 mg/kg,0.617 % Dose/1% Body weight
same,"Marrow, % Dose in Whole Organ",[2]; AEDP 0.01 mg/kg,0.657 % Dose
same,"Marrow, % dose/1% body weight",[2]; AEDP 0.01 mg/kg,0.300 % Dose/1% Body weight
same,"Muscle, % Dose in Whole Organ",[2]; AEDP 0.01 mg/kg,0.988 % Dose
same,"Muscle, % dose/1% body weight",[2]; AEDP 0.01 mg/kg,0.037 % Dose/1% Body weight
same,"Pelvis, % dose/1% body weight",[2]; AEDP 0.01 mg/kg,8.53 % Dose/1% Body weight
same,"Ratio of 99mTc/85Sr, Ave Bone",[2]; AEDP 0.01 mg/kg,0.735
same,"Ratio of 99mTc/85Sr, Blood",[2]; AEDP 0.01 mg/kg,0.406
same,"Ratio of 99mTc/85Sr, Femur",[2]; AEDP 0.01 mg/kg,0.720
same,"Ratio of 99mTc/85Sr, Kidney",[2]; AEDP 0.01 mg/kg,4.99
same,"Ratio of 99mTc/85Sr, Liver",[2]; AEDP 0.01 mg/kg,3.00
same,"Ratio of 99mTc/85Sr, Marrow",[2]; AEDP 0.01 mg/kg,1.27
same,"Ratio of 99mTc/85Sr, Muscle",[2]; AEDP 0.01 mg/kg,0.338
same,"Ratio of 99mTc/85Sr, Pelvis",[2]; AEDP 0.01 mg/kg,0.794
same,"Ratio of 99mTc/85Sr, Spine",[2]; AEDP 0.01 mg/kg,0.689
same,"Ratio of 99mTc/85Sr, Tibia",[2]; AEDP 0.01 mg/kg,0.710
same,"Spine, % dose/1% body weight",[2]; AEDP 0.01 mg/kg,6.20 % Dose/1% Body weight
same,Tc/Sr ratio (Table 4),[2]; AEDP 0.01 mg/kg,0.736
same,"Tibia, % dose/1% body weight",[2]; AEDP 0.01 mg/kg,8.13 % Dose/1% Body weight
same,"Urine, % Dose",[2]; AEDP 0.01 mg/kg,48.39 % Dose
same,"W. Femur, % Dose in Whole Organ",[2]; AEDP 0.01 mg/kg,2.34 % Dose
same,"W. Tibia, % Dose in Whole Organ",[2]; AEDP 0.01 mg/kg,1.96 % Dose
same,"Blood, % Dose in Whole Organ",[2]; AEDP 0.05 mg/kg,1.01 % Dose
same,"Blood, % dose/1% body weight",[2]; AEDP 0.05 mg/kg,0.144 % Dose/1% Body weight
same,"Bone Ave, % Dose/1% Body weight",[2]; AEDP 0.05 mg/kg,8.39 % Dose/1% Body weight
same,"Femur, % dose/1% body weight",[2]; AEDP 0.05 mg/kg,8.63 % Dose/1% Body weight
same,"Kidneys, % Dose in Whole Organ",[2]; AEDP 0.05 mg/kg,1.13 % Dose
same,"Kidneys, % dose/1% body weight",[2]; AEDP 0.05 mg/kg,1.83 % Dose/1% Body weight
same,"Liver, % Dose in Whole Organ",[2]; AEDP 0.05 mg/kg,0.806 % Dose
same,"Liver, % dose/1% body weight",[2]; AEDP 0.05 mg/kg,0.176 % Dose/1% Body weight
same,"Marrow, % Dose in Whole Organ",[2]; AEDP 0.05 mg/kg,0.549 % Dose
same,"Marrow, % dose/1% body weight",[2]; AEDP 0.05 mg/kg,0.250 % Dose/1% Body weight
same,"Muscle, % Dose in Whole Organ",[2]; AEDP 0.05 mg/kg,1.20 % Dose
same,"Muscle, % dose/1% body weight",[2]; AEDP 0.05 mg/kg,0.028 % Dose/1% Body weight
same,"Pelvis, % dose/1% body weight",[2]; AEDP 0.05 mg/kg,7.82 % Dose/1% Body weight
same,"Ratio of 99mTc/85Sr, Ave Bone",[2]; AEDP 0.05 mg/kg,0.683
same,"Ratio of 99mTc/85Sr, Blood",[2]; AEDP 0.05 mg/kg,0.409
same,"Ratio of 99mTc/85Sr, Femur",[2]; AEDP 0.05 mg/kg,0.687
same,"Ratio of 99mTc/85Sr, Kidney",[2]; AEDP 0.05 mg/kg,3.30
same,"Ratio of 99mTc/85Sr, Liver",[2]; AEDP 0.05 mg/kg,1.32
same,"Ratio of 99mTc/85Sr, Marrow",[2]; AEDP 0.05 mg/kg,1.18
same,"Ratio of 99mTc/85Sr, Muscle",[2]; AEDP 0.05 mg/kg,0.236
same,"Ratio of 99mTc/85Sr, Pelvis",[2]; AEDP 0.05 mg/kg,0.684
same,"Ratio of 99mTc/85Sr, Spine",[2]; AEDP 0.05 mg/kg,0.675
same,"Ratio of 99mTc/85Sr, Tibia",[2]; AEDP 0.05 mg/kg,0.681
same,"Spine, % dose/1% body weight",[2]; AEDP 0.05 mg/kg,7.80 % Dose/1% Body weight
same,Tc/Sr ratio (Table 4),[2]; AEDP 0.05 mg/kg,0.680
same,"Tibia, % dose/1% body weight",[2]; AEDP 0.05 mg/kg,9.30 % Dose/1% Body weight
same,"Urine, % Dose",[2]; AEDP 0.05 mg/kg,44.21 % Dose
same,"W. Femur, % Dose in Whole Organ",[2]; AEDP 0.05 mg/kg,2.41 % Dose
same,"W. Tibia, % Dose in Whole Organ",[2]; AEDP 0.05 mg/kg,2.14 % Dose
same,"Blood, % Dose in Whole Organ",[2]; AEDP 0.1 mg/kg,0.96 % Dose
same,"Blood, % dose/1% body weight",[2]; AEDP 0.1 mg/kg,0.137 % Dose/1% Body weight
same,"Bone Ave, % Dose/1% Body weight",[2]; AEDP 0.1 mg/kg,7.51 % Dose/1% Body weight
same,"Femur, % dose/1% body weight",[2]; AEDP 0.1 mg/kg,7.93 % Dose/1% Body weight
same,"Kidneys, % Dose in Whole Organ",[2]; AEDP 0.1 mg/kg,0.913 % Dose
same,"Kidneys, % dose/1% body weight",[2]; AEDP 0.1 mg/kg,1.28 % Dose/1% Body weight
same,"Liver, % Dose in Whole Organ",[2]; AEDP 0.1 mg/kg,0.309 % Dose
same,"Liver, % dose/1% body weight",[2]; AEDP 0.1 mg/kg,0.083 % Dose/1% Body weight
same,"Marrow, % Dose in Whole Organ",[2]; AEDP 0.1 mg/kg,0.211 % Dose
same,"Marrow, % dose/1% body weight",[2]; AEDP 0.1 mg/kg,0.096 % Dose/1% Body weight
same,"Muscle, % Dose in Whole Organ",[2]; AEDP 0.1 mg/kg,1.46 % Dose
same,"Muscle, % dose/1% body weight",[2]; AEDP 0.1 mg/kg,0.034 % Dose/1% Body weight
same,"Pelvis, % dose/1% body weight",[2]; AEDP 0.1 mg/kg,6.24 % Dose/1% Body weight
same,"Ratio of 99mTc/85Sr, Ave Bone",[2]; AEDP 0.1 mg/kg,0.716
same,"Ratio of 99mTc/85Sr, Blood",[2]; AEDP 0.1 mg/kg,0.409
same,"Ratio of 99mTc/85Sr, Femur",[2]; AEDP 0.1 mg/kg,0.714
same,"Ratio of 99mTc/85Sr, Kidney",[2]; AEDP 0.1 mg/kg,2.94
same,"Ratio of 99mTc/85Sr, Liver",[2]; AEDP 0.1 mg/kg,0.490
same,"Ratio of 99mTc/85Sr, Marrow",[2]; AEDP 0.1 mg/kg,0.621
same,"Ratio of 99mTc/85Sr, Muscle",[2]; AEDP 0.1 mg/kg,0.205
same,"Ratio of 99mTc/85Sr, Pelvis",[2]; AEDP 0.1 mg/kg,0.725
same,"Ratio of 99mTc/85Sr, Spine",[2]; AEDP 0.1 mg/kg,0.705
same,"Ratio of 99mTc/85Sr, Tibia",[2]; AEDP 0.1 mg/kg,0.721
same,"Spine, % dose/1% body weight",[2]; AEDP 0.1 mg/kg,7.36 % Dose/1% Body weight
same,Tc/Sr ratio (Table 4),[2]; AEDP 0.1 mg/kg,0.717
same,"Tibia, % dose/1% body weight",[2]; AEDP 0.1 mg/kg,8.50 % Dose/1% Body weight
same,"Urine, % Dose",[2]; AEDP 0.1 mg/kg,38.8 % Dose
same,"W. Femur, % Dose in Whole Organ",[2]; AEDP 0.1 mg/kg,2.38 % Dose
same,"W. Tibia, % Dose in Whole Organ",[2]; AEDP 0.1 mg/kg,2.18 % Dose
same,"Blood, % Dose in Whole Organ",[2]; AEDP 0.5 mg/kg,1.38 % Dose
same,"Blood, % dose/1% body weight",[2]; AEDP 0.5 mg/kg,0.197 % Dose/1% Body weight
same,"Bone Ave, % Dose/1% Body weight",[2]; AEDP 0.5 mg/kg,6.96 % Dose/1% Body weight
same,"Femur, % dose/1% body weight",[2]; AEDP 0.5 mg/kg,6.59 % Dose/1% Body weight
same,"Kidneys, % Dose in Whole Organ",[2]; AEDP 0.5 mg/kg,1.11 % Dose
same,"Kidneys, % dose/1% body weight",[2]; AEDP 0.5 mg/kg,2.11 % Dose/1% Body weight
same,"Liver, % Dose in Whole Organ",[2]; AEDP 0.5 mg/kg,0.216 % Dose
same,"Liver, % dose/1% body weight",[2]; AEDP 0.5 mg/kg,0.079 % Dose/1% Body weight
same,"Marrow, % Dose in Whole Organ",[2]; AEDP 0.5 mg/kg,0.23 % Dose
same,"Marrow, % dose/1% body weight",[2]; AEDP 0.5 mg/kg,0.104 % Dose/1% Body weight
same,"Muscle, % Dose in Whole Organ",[2]; AEDP 0.5 mg/kg,0.883 % Dose
same,"Muscle, % dose/1% body weight",[2]; AEDP 0.5 mg/kg,0.021 % Dose/1% Body weight
same,"Pelvis, % dose/1% body weight",[2]; AEDP 0.5 mg/kg,7.93 % Dose/1% Body weight
same,"Ratio of 99mTc/85Sr, Ave Bone",[2]; AEDP 0.5 mg/kg,0.644
same,"Ratio of 99mTc/85Sr, Blood",[2]; AEDP 0.5 mg/kg,0.280
same,"Ratio of 99mTc/85Sr, Femur",[2]; AEDP 0.5 mg/kg,0.628
same,"Ratio of 99mTc/85Sr, Kidney",[2]; AEDP 0.5 mg/kg,2.47
same,"Ratio of 99mTc/85Sr, Liver",[2]; AEDP 0.5 mg/kg,0.459
same,"Ratio of 99mTc/85Sr, Marrow",[2]; AEDP 0.5 mg/kg,0.500
same,"Ratio of 99mTc/85Sr, Muscle",[2]; AEDP 0.5 mg/kg,0.140
same,"Ratio of 99mTc/85Sr, Pelvis",[2]; AEDP 0.5 mg/kg,0.692
same,"Ratio of 99mTc/85Sr, Spine",[2]; AEDP 0.5 mg/kg,0.614
same,"Ratio of 99mTc/85Sr, Tibia",[2]; AEDP 0.5 mg/kg,0.632
same,"Spine, % dose/1% body weight",[2]; AEDP 0.5 mg/kg,6.05 % Dose/1% Body weight
same,Tc/Sr ratio (Table 4),[2]; AEDP 0.5 mg/kg,0.645
same,"Tibia, % dose/1% body weight",[2]; AEDP 0.5 mg/kg,7.27 % Dose/1% Body weight
same,"Urine, % Dose",[2]; AEDP 0.5 mg/kg,48.85 % Dose
same,"W. Femur, % Dose in Whole Organ",[2]; AEDP 0.5 mg/kg,1.74 % Dose
same,"W. Tibia, % Dose in Whole Organ",[2]; AEDP 0.5 mg/kg,1.55 % Dose
